Target: ligand binding domain of human FXR (Homo sapiens (Human), UniProt Q96RI1)
Experiment: FXR ligand binding assay (LanthaScreen TR-FRET, SRC2-2 peptide recruitment)
Conditions: for Emax: extent of activation relative to GW4064, read-out: % Efficacy
Experimental: The affinity of FXR ligands for the ligand binding domain of FXR was determined using a commercially available human FXR ligand binding assay (LanthaScreen, Thermofisher Cat # PV4833). […] Binding of FXR ligands to the FXR ligand binding domain promotes binding of the fluorescein-labelled SRC2-2 peptide. This causes a FRET signal between the terbium-labelled anti-GST antibody and the fluorescein-labelled SRC peptide which are both bound to the FXR ligand binding domain.
Test compounds are dissolved in DMSO and a 3-fold serial dilution series is generated, then further diluted into assay buffer. The compounds are mixed with 5 nM GST-tagged FXR ligand binding domain, 5 nM Tb-labelled anti-GST antibody and 500 nM fluorescein-labelled SRC2-2 peptide in a pH7.4 buffer. The reaction is incubated at room temperature for 1 hour, then the FRET signal is measured as the ratio of the 520 nm/495 nm emission following excitation at 340 nm. The change in FRET signal is plotted against the test article concentration and fit to a 3-parameter logistical equation. The concentration required to produce 50% activation is expressed as pEC50 (−log EC50), and the extent of activation is expressed relative to GW4064 as % activation.

[1] = -log EC50, concentration required to produce 50% activation

Chain of ligand binding domain of human FXR (Q96RI1 262-486): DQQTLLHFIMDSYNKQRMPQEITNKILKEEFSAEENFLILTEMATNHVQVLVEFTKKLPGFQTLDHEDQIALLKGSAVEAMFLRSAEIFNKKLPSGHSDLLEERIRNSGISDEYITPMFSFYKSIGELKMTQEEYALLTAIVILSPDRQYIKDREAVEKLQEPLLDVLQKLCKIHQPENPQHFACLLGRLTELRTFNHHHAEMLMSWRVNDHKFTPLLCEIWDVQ

| EC50 [1] | Structure (SMILES) | pEC50 [1] | Emax |
| --- | --- | --- | --- |
|  | C[C@@H]1[C@@H]2C[C@@H](C[C@H]2OCc2c(-c3c(Cl)cccc3Cl)noc2C2CC2)N1c1ccc(C(=O)O)cn1 [Compound I-369, 6-[(1S,3R,4S,5R)-5-[[5-cyclopropyl-3-(2,6-dichlorophenyl)-1,2-oxazol-4-yl]methoxy]-3-methyl-2-azabicyclo[2.2.1]heptan-2-yl]pyridine-3-carboxylic acid] | 6.8 | 50% |
|  | C[C@H]1[C@H]2C[C@H](C[C@@H]2OCc2c(-c3c(Cl)cccc3Cl)noc2C2CC2)N1c1ccc(C(=O)O)nc1 [Compound I-368, 5-[(1R,3S,4R,5S)-5-[[5-cyclopropyl-3-(2,6-dichlorophenyl)-1,2-oxazol-4-yl]methoxy]-3-methyl-2-azabicyclo[2.2.1]heptan-2-yl]pyridine-2-carboxylic acid] | 5.8 | 22% |
|  | O=C(O)CCc1ncc(N2C(=O)[C@@H]3C[C@H]2C[C@H]3OCc2c(-c3c(Cl)cccc3Cl)noc2C2CC2)cc1F [Compound I-328, 3-{5-[(1S,4R,5R)-5-{[5-cyclopropyl-3-(2,6-dichlorophenyl)-1,2-oxazol-4-yl]methoxy}-3-oxo-2-azabicyclo[2.2.1]heptan-2-yl]-3-fluoropyridin-2-yl}propanoic Acid] | 6.9 | 87% |
|  | C[C@@H]1[C@@H]2C[C@@H](C[C@H]2OCc2c(-c3c(Cl)cccc3Cl)noc2C2CC2)N1c1ccc(C(=O)O)c(F)c1 [Compound I-362, 4-[(1S,3R,4S,5R)-5-[[5-cyclopropyl-3-(2,6-dichlorophenyl)-1,2-oxazol-4-yl]methoxy]-3-methyl-2-azabicyclo[2.2.1]heptan-2-yl]-2-fluorobenzoic acid] | 7.2 | 72% |
|  | C[C@H]1[C@H]2C[C@H](C[C@@H]2OCc2c(-c3c(Cl)cccc3Cl)noc2C2CC2)N1c1ccc(C(=O)O)cn1 [Compound I-370, 6-[(1R,3S,4R,5S)-5-[[5-cyclopropyl-3-(2,6-dichlorophenyl)-1,2-oxazol-4-yl]methoxy]-3-methyl-2-azabicyclo[2.2.1]heptan-2-yl]pyridine-3-carboxylic acid] | 4.5 | 79% |
|  | C[C@H]1[C@H]2C[C@H](C[C@@H]2OCc2c(-c3c(Cl)cccc3Cl)noc2C2CC2)N1c1ccc(C(=O)NS(=O)(=O)C2CCOCC2)nc1 [Compound I-372, 5-[(1R,3S,4R,5S)-5-[[5-cyclopropyl-3-(2,6-dichlorophenyl)-1,2-oxazol-4-yl]methoxy]-3-methyl-2-azabicyclo[2.2.1]heptan-2-yl]-N-(oxane-4-sulfonyl)pyridine-2-carboxamide] | 6.1 | 22% |
|  | O=C(NS(=O)(=O)C1CC1)c1ncc(N2C(=O)[C@@H]3C[C@H]2C[C@H]3OCc2c(-c3c(Cl)cccc3Cl)noc2C2CC2)cc1F [Compound I-355, 5-((1S,4R,5R)-5-((5-cyclopropyl-3-(2,6-dichlorophenyl)isoxazol-4-yl)methoxy)-3-oxo-2-azabicyclo[2.2.1]heptan-2-yl)-N-(cyclopropylsulfonyl)-3-fluoropicolinamide] | 7.9 | 157% |
|  | O=C(NS(=O)(=O)C1CCOCC1)c1ccc(N2C(=O)[C@@H]3C[C@H]2C[C@H]3OCc2c(-c3c(Cl)cccc3Cl)noc2C2CC2)cn1 [Compound I-352, 5-((1S,4R,5R)-5-((5-cyclopropyl-3-(2,6-dichlorophenyl)isoxazol-4-yl)methoxy)-3-oxo-2-azabicyclo[2.2.1]heptan-2-yl)-N-((tetrahydro-2H-pyran-4-yl)sulfonyl)picolinamide] | 8 | 154% |
|  | O=C(NS(=O)(=O)C1CC1)c1ccc(N2C(=O)[C@@H]3C[C@H]2C[C@H]3OCc2c(-c3c(Cl)cccc3Cl)noc2C2CC2)cn1 [Compound I-351, 5-((1S,4R,5R)-5-((5-cyclopropyl-3-(2,6-dichlorophenyl)isoxazol-4-yl)methoxy)-3-oxo-2-azabicyclo[2.2.1]heptan-2-yl)-N-(cyclopropylsulfonyl)picolinamide] | 7.6 | 132% |
| 0.631 nM | Cc1cc(C(=O)NO)ccc1N1C[C@@H]2C[C@H]1C[C@H]2OCc1c(-c2c(Cl)cccc2Cl)noc1C1CC1 [Compound I-139, 4-[(1S,4S,5R)-5-{[5-cyclopropyl-3-(2,6-dichlorophenyl)-1,2-oxazol-4-yl]methoxy}-2-azabicyclo[2.2.1]heptan-2-yl]-N-hydroxy-3-methylbenzamide] |  | 132% |
|  | CC[C@@H]1[C@@H]2C[C@@H](C[C@H]2OCc2c(-c3c(Cl)cccc3Cl)noc2C2CC2)N1c1ccc(C(=O)O)cc1 [Compound I-365, 4-[(1S,3R,4S,5R)-5-[[5-cyclopropyl-3-(2,6-dichlorophenyl)-1,2-oxazol-4-yl]methoxy]-3-ethyl-2-azabicyclo[2.2.1]heptan-2-yl]benzoic acid] | 6.4 | 67% |
|  | O=C(O)c1ncc(N2C(=O)[C@@H]3C[C@H]2C[C@H]3OCc2c(-c3c(Cl)cccc3Cl)noc2C2CC2)cn1 [Compound I-323, 5-[(1S,4R,5R)-5-{[5-cyclopropyl-3-(2,6-dichlorophenyl)-1,2-oxazol-4-yl]methoxy}-3-oxo-2-azabicyclo[2.2.1]heptan-2-yl]pyrimidine-2-carboxylic Acid] | 6.4 | 103% |
|  | O=C(NS(=O)(=O)C1CCCC1)c1ccc(N2C(=O)[C@@H]3C[C@H]2C[C@H]3OCc2c(-c3c(Cl)cccc3Cl)noc2C2CC2)cn1 [Compound I-353, N-(cyclopentylsulfonyl)-5-((1S,4R,5R)-5-((5-cyclopropyl-3-(2,6-dichlorophenyl)isoxazol-4-yl)methoxy)-3-oxo-2-azabicyclo[2.2.1]heptan-2-yl)picolinamide] | 8.3 | 159% |
|  | C[C@@H]1[C@@H]2C[C@@H](C[C@H]2OCc2c(-c3c(Cl)cccc3Cl)noc2C2CC2)N1c1ccc(C(=O)O)nc1 [Compound I-367, 5-[(1S,3R,4S,5R)-5-[[5-cyclopropyl-3-(2,6-dichlorophenyl)-1,2-oxazol-4-yl]methoxy]-3-methyl-2-azabicyclo[2.2.1]heptan-2-yl]pyridine-2-carboxylic Acid] | 6.4 | 61% |
|  | O=C(NS(=O)(=O)C1CCCC1)c1ncc(N2C(=O)[C@@H]3C[C@H]2C[C@H]3OCc2c(-c3c(Cl)cccc3Cl)noc2C2CC2)cc1F [Compound I-356, N-(cyclopentylsulfonyl)-5-((1S,4R,5R)-5-((5-cyclopropyl-3-(2,6-dichlorophenyl)isoxazol-4-yl)methoxy)-3-oxo-2-azabicyclo[2.2.1]heptan-2-yl)-3-fluoropicolinamide] | 8.6 | 168% |
|  | CO[C@@H]1CCC[C@H]1S(=O)(=O)NC(=O)c1ncc(N2C(=O)[C@@H]3C[C@H]2C[C@H]3OCc2c(-c3c(Cl)cccc3Cl)noc2C2CC2)cc1F [Compound I-348, 5-[(1S,4R,5R)-5-{[5-cyclopropyl-3-(2,6-dichlorophenyl)-1,2-oxazol-4-yl]methoxy}-3-oxo-2-azabicyclo[2.2.1]heptan-2-yl]-3-fluoro-N-{[(1R,2R)-2-methoxycyclopentyl]sulfonyl}pyridine-2-carboxamide] | 8 | 171% |
